Like-named read-outs stand apart in the source and are kept apart here.
System: parasite
Assay: Parasite LDH growth assay (Parasite Assay), antiparasite potency
Assay type: cell-based
Conditions: parasite LDH growth assay, ring stage parasites, 72 hours incubation at 37° C., read-out: EC50
Method in brief: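 Growth was read by an LDH assay after a freeze–thaw cycle (−80 °C overnight, 4 h thaw at RT). Before that, parasites grew with compound for 72 h at 37 °C under gassed, humidified conditions. The input was a ring-stage culture adjusted to 0.7% parasitemia and 2% haematocrit in serum (5%)/albumax (0.5%)-supplemented RPMI-Hepes.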

Row | Structure (SMILES) | EC50 (72 h) [nM] | EC50 [nM]
1 | CC[C@@]1(C)CC(=O)N([C@@H]2CCOc3ccc(C(=O)N[C@@H]4c5cc(F)ccc5OC(C)(C)[C@H]4O)cc32)C(=N)N1 [Example 225, (4R)-4-[(4S)-4-ethyl-2-imino-4-methyl-6-oxo-hexahydropyrimidin-1-yl]-N-[(3S,4R)-6-fluoro-3-hydroxy-2,2-dimethyl-chroman-4-yl]chromane-6-carboxamide] | 0.8 | 
2 | CCC1(CC)CC(=O)N([C@@H]2CCOc3ccc(C(=O)NC4c5cc(F)ccc5OCC4(C)O)cc32)C(=N)N1 (stereo partly drawn) [Example 226D, (4R)-4-(4,4-diethyl-2-imino-6-oxo-hexahydropyrimidin-1-yl)-N-(6-fluoro-3-hydroxy-3-methyl-chroman-4-yl)chromane-6-carboxamide] |  | 1
3 | CCC1(CC)CC(=O)N([C@H]2c3cc(C(=O)N[C@@H]4c5ccccc5C[C@@]4(C)O)ccc3OC[C@H]2COC)C(=N)N1 [Example 235, (3R,4R)-4-(4,4-diethyl-2-imino-6-oxo-hexahydropyrimidin-1-yl)-N-[(1R,2R)-2-hydroxy-2-methyl-indan-1-yl]-3-(methoxymethyl)chromane-6-carboxamide] | 0.7 | 
4 | CCC1(CC)CC(=O)N([C@@H]2C[C@@H](OC)c3ccc(C(=O)N[C@@H]4c5ccccc5OC(C)(C)[C@H]4O)cc32)C(=N)N1 [Example 236, (1R,3R)-3-(4,4-diethyl-2-imino-6-oxo-hexahydropyrimidin-1-yl)-N-[(3S,4R)-3-hydroxy-2,2-dimethyl-chroman-4-yl]-1-methoxy-indane-5-carboxamide] | 0.9 | 
5 | CCC1(CC)CC(=O)N([C@@H]2C[C@H](OC)c3ccc(C(=O)N[C@@H]4c5ccccc5OC(C)(C)[C@H]4O)cc32)C(=N)N1 [Example 239, (1S,3R)-3-(4,4-diethyl-2-imino-6-oxo-hexahydropyrimidin-1-yl)-N-[(3S,4R)-3-hydroxy-2,2-dimethyl-chroman-4-yl]-1-methoxy-indane-5-carboxamide] | 0.9 | 
6 | CCC1(CC)CC(=O)N([C@H]2c3cc(C(=O)N[C@@H]4c5ccccc5OC(C)(C)[C@H]4O)ccc3OC[C@@H]2C)C(=N)N1 [Example 240, (3R,4R)-4-(4,4-diethyl-2-imino-6-oxo-hexahydropyrimidin-1-yl)-N-[(3S,4R)-3-hydroxy-2,2-dimethyl-chroman-4-yl]-3-methyl-chromane-6-carboxamide] | 0.6 | 
7 | CCC1(CC)CC(=O)N([C@H]2c3cc(C(=O)N[C@@H]4c5ccccc5OC(C)(C)[C@H]4O)ccc3OC[C@H]2C)C(=N)N1 [Example 241, (3S,4R)-4-(4,4-diethyl-2-imino-6-oxo-hexahydropyrimidin-1-yl)-N-[(3S,4R)-3-hydroxy-2,2-dimethyl-chroman-4-yl]-3-methyl-chromane-6-carboxamide] | 0.4 | 
8 | CCC1(CC)CC(=O)N([C@@H]2CCOc3ccc(C(=O)NC4c5ccccc5OC(C)(C)C4(C)O)cc32)C(=N)N1 (stereo partly drawn) [Example 242A, (4R)-4-(4,4-diethyl-2-imino-6-oxo-hexahydropyrimidin-1-yl)-N-(3-hydroxy-2,2,3-trimethyl-chroman-4-yl)chromane-6-carboxamide] |  | 0.6
9 | CCC1(CC)CC(=O)N([C@H]2c3cc(C(=O)N[C@@H]4c5ccccc5OC(C)(C)[C@H]4O)ccc3OC2(C)C)C(=N)N1 [Example 245, (3S)-3-(4,4-diethyl-2-imino-6-oxo-hexahydropyrimidin-1-yl)-N-[(3S,4R)-3-hydroxy-2,2-dimethyl-chroman-4-yl]-2,2-dimethyl-3H-benzofuran-5-carboxamide] | 0.8 | 
10 | CCC1(CC)CC(=O)N([C@@H]2C[C@@H](C)Oc3ccc(C(=O)N[C@@H]4c5ccccc5OC(C)(C)[C@H]4O)cc32)C(=N)N1 [Example 246, (2R,4R)-4-(4,4-diethyl-2-imino-6-oxo-hexahydropyrimidin-1-yl)-N-[(3S,4R)-3-hydroxy-2,2-dimethyl-chroman-4-yl]-2-methyl-chromane-6-carboxamide] | 2 | 
11 | CCC1(CC)CC(=O)N([C@H]2c3cc(C(=O)N[C@@H]4c5ccccc5OC[C@@]4(C)O)ccc3CC[C@@H]2OC)C(=N)N1 [Example 247, (3S,4S)-4-(4,4-diethyl-2-imino-6-oxo-hexahydropyrimidin-1-yl)-N-[(3S,4R)-3-hydroxy-3-methyl-chroman-4-yl]-3-methoxy-tetralin-6-carboxamide] | 4.5 | 
12 | CCC1(CC)CC(=O)N([C@@H]2CCCOc3ccc(C(=O)N[C@@H]4c5ccccc5OC(C)(C)[C@H]4O)cc32)C(=N)N1 [Example 248, (5R)-5-(4,4-diethyl-2-imino-6-oxo-hexahydropyrimidin-1-yl)-N-[(3S,4R)-3-hydroxy-2,2-dimethyl-chroman-4-yl]-2,3,4,5-tetrahydro-1-benzoxepine-7-carboxamide] | 0.8 | 
13 | CCC1(CC)CC(=O)N([C@@H]2CCOc3ccc(C(=O)NC4c5ccccc5CC4(O)C(F)(F)F)cc32)C(=N)N1 (stereo partly drawn) [Example 272C, (4R)-4-(4,4-diethyl-2-imino-6-oxo-hexahydropyrimidin-1-yl)-N-[2-hydroxy-2-(trifluoromethyl)indan-1-yl]chromane-6-carboxamide] |  | 0.9
14 | CCC1(CC)CC(=O)N([C@H]2c3cc(C(=O)N[C@@H]4c5ccccc5OC(C)(C)[C@H]4O)ccc3CC[C@@H]2OC)C(=N)N1 [Example 276, (3S,4S)-4-(4,4-diethyl-2-imino-6-oxo-hexahydropyrimidin-1-yl)-N-[(3S,4R)-3-hydroxy-2,2-dimethyl-chroman-4-yl]-3-methoxy-tetralin-6-carboxamide] | 0.6 | 
15 | CC[C@]1(C)CC(=O)N([C@H]2c3cc(C(=O)N[C@@H]4c5ccccc5OC(C)(C)[C@H]4O)ccc3OC[C@@H]2COC)C(=N)N1 [Example 277, (3S,4R)-4-[(4R)-4-ethyl-2-imino-4-methyl-6-oxo-hexahydropyrimidin-1-yl]-N-[(3S,4R)-3-hydroxy-2,2-dimethyl-chroman-4-yl]-3-(methoxymethyl)chromane-6-carboxamide] | 0.4 | 
16 | CC[C@]1(C)CC(=O)N([C@H]2c3cc(C(=O)N[C@@H]4c5ccccc5OC(C)(C)[C@H]4O)ccc3OCC2(C)OC)C(=N)N1 (stereo partly drawn) [Example 284, 4-[(4R)-4-ethyl-2-imino-4-methyl-6-oxo-hexahydropyrimidin-1-yl]-N-[(3S,4R)-3-hydroxy-2,2-dimethyl-chroman-4-yl]-3-methoxy-3-methyl-chromane-6-carboxamide] | 8.5 | 
17 | CCC1(CC)CC(=O)N([C@@H]2CCS(=O)(=O)c3ccc(C(=O)N[C@H]4CC(C)(C)Oc5ccccc54)cc32)C(=N)N1 [Example 289, (4R)-4-(4,4-diethyl-2-imino-6-oxo-hexahydropyrimidin-1-yl)-N-[(4S)-2,2-dimethylchroman-4-yl]-1,1-dioxo-3,4-dihydro-2H-thiochromene-6-carboxamide] |  | 0.6
18 | CCC1(CC)CC(=O)N([C@H]2c3cc(C(=O)N[C@@H]4c5ccccc5C(F)(F)[C@H]4O)ccc3O[C@@]2(C)COC)C(=N)N1 [Example 290, (2R,3S)-3-(4,4-diethyl-2-imino-6-oxo-hexahydropyrimidin-1-yl)-N-[(1R,2S)-3,3-difluoro-2-hydroxy-indan-1-yl]-2-(methoxymethyl)-2-methyl-3H-benzofuran-5-carboxamide] | 0.3 | 
19 | CCC1(CC)CC(=O)N([C@H]2c3cc(C(=O)N[C@H]4c5ccccc5C(F)(F)[C@@H]4O)ccc3O[C@@]2(C)COC)C(=N)N1 [Example 291, (2R,3S)-3-(4,4-diethyl-2-imino-6-oxo-hexahydropyrimidin-1-yl)-N-[(1S,2R)-3,3-difluoro-2-hydroxy-indan-1-yl]-2-(methoxymethyl)-2-methyl-3H-benzofuran-5-carboxamide] | 240 | 
